In this assay the test system is ATGL-KO iPSCs. In words: High throughput iPSC chemical screening, Oil Red O (ORO) lipid accumulation. On Z-score: test concentration or dose not given here. It counts as cell-based, mouse.
The mark [1] stands for this setting: normalized ORO level vs DMSO-treated cells, compound present during 7 days differentiation, 96-well, negative = decrease in lipid accumulation.

Structures can show the parent of a compound that is named as a salt. Where two headings read alike, the source gives them in different places.

`COc1ccc2c(c1)[C@]13CCCC[C@@H]1[C@H](C2)N(C)CC3`: under setting [1], the Z-score is given as −0.8776.

Under setting [1], `COc1cc2c(cc1OC)C(C)NCC2.Cl` (stereo not drawn) returned a Z-score of 0.4756. Same read-out and setting: the same measure for `Cc1ccc(Cl)c(Nc2ccccc2C(=O)O)c1Cl`: −1.2044; for `CC(C)NCC(O)c1cc(O)cc(O)c1.CC(C)NCC(O)c1cc(O)cc(O)c1.O=S(=O)(O)O` (stereo not drawn): −0.3842. `CN1CCc2cccc3c2[C@H]1Cc1ccc(O)c(O)c1-3.CN1CCc2cccc3c2[C@H]1Cc1ccc(O)c(O)c1-3.Cl.Cl.O` came in with a Z-score of −0.2622. Turning to `O=C(O)Cc1cc(I)c(Oc2ccc(O)c(I)c2)c(I)c1`, the Z-score under setting [1] was −0.9554.

Consider `CN(N=O)C(=O)N[C@H]1C(O)O[C@H](CO)[C@@H](O)[C@@H]1O` (mixture of isomers) [Streptozotocin], for which, under setting [1], the Z-score turned out to be 0.0088. On the same count and under the same terms, as for `Cl.NCC(O)c1ccc(O)cc1` (racemic) [(+,−)-Octopamine hydrochloride], the figure is 0.9737; as for `CNCC(O)c1ccc(O)cc1` (racemic) [(+,−)-Synephrine], −1.0448. Regarding `O=C(O)C1CCCNC1` (racemic) [(±)-Nipecotic acid], the Z-score is given as 0.6655.

In the case of `CN(Cc1cnc2nc(N)nc(N)c2n1)c1ccc(C(=O)N[C@@H](CCC(=O)O)C(=O)O)cc1` (racemic) [Amethopterin (R,S)], the Z-score under setting [1] is 15.6786. On the same count and under the same terms, as for `CC(=O)NC(CC(=O)O)C(=O)O` (racemic) [Aspartic acid, N-acetyl (R,S)], the figure is 0.7559; as for `NCC(CC(=O)O)c1ccc(Cl)cc1` (racemic) [Baclofen (R,S)], 0.07861; as for `O.Oc1cc(O)c2c(c1)OC(c1ccc(O)c(O)c1)C(O)C2` (racemic) [Catechin-(+,−) hydrate], −0.9777. With `OCC(O)CN1CCN(c2ccccc2)CC1` (racemic) [Dropropizine (R,S)], under setting [1], the Z-score came out at 0.6396. The same measure, in the same setting: as for `Nc1c2c(nc3ccccc13)CCCC2O.O=C(O)/C=C\C(=O)O` (racemic) [Hydroxytacrine maleate (R,S)], the figure is −0.525.

For the compound `Nc1c(O)cccc1C(=O)CC(N)C(=O)O` (racemic) [Kynurenine, 3-hydroxy (R,S)], under setting [1], the Z-score came to 0.1567. On the same count and under the same terms, as for `COc1ccc(CC2c3cc(OC)c(OC)cc3CCN2C)cc1OC` (racemic) [Laudanosine (R,S)], the figure is −0.5493; as for `COCCc1ccc(OCC(O)CNC(C)C)cc1.COCCc1ccc(OCC(O)CNC(C)C)cc1.O=C(O)C(O)C(O)C(=O)O` (racemic) [Metoprolol-(+,−) (+)-tartrate salt], −0.4304.

Compound `CC(=O)NC1CCSC1=O` (racemic) [N-Acetyl-DL-homocysteine Thiolactone] returned a Z-score under setting [1] of 0.1772. On the same count and under the same terms, as for `CN1CCC2(C)c3cc(O)ccc3N(C)C12.O=C(O)/C=C/C(=O)O` (single isomer, unassigned; (-)) [(−)-Eseroline fumarate salt], the figure is −0.478; as for `CC(C)NCC(O)c1ccc(O)c(O)c1.Cl` (single isomer, unassigned; (-)) [(−)-Isoproterenol hydrochloride], 4.267. With `CC(=C(CCO)SSCC1CCCO1)N(C=O)Cc1cnc(C)nc1N` (stereo in doubt) [Fursultiamine Hydrochloride], the Z-score was −0.696. Under setting [1], `CC(=O)NC1[C@@H](O)OC(CO)[C@@H](O)[C@H]1O[C@H](C)C(=O)O` (stereo in doubt) [Muramic acid, N-acetyl] had a Z-score of 1.128. Regarding `Nc1ccccc1S(N)(=O)=O` [2-Aminobenzenesulfonamide], the Z-score under setting [1] is reported as −1.9389. Still for that read-out and setting: the same measure for `Clc1cnccn1` [2-Chloropyrazine]: −0.5863; for `CC(=O)Nc1cc2ccccc2oc1=O` [3-Acetamidocoumarin]: 0.06786; for `CC(=O)c1cc2ccccc2oc1=O` [3-Acetylcoumarin]: −0.8473.

For `C[C@]12CC[C@@H](O)C[C@H]1CC[C@@H]1[C@@H]2CC[C@]2(C)C(=O)CC[C@@H]12` [3-alpha-Hydroxy-5-beta-androstan-17-one], the Z-score was −0.187.

Consider `c1coc(CNc2ncnc3nc[nH]c23)c1` [6-Furfurylaminopurine], for which, under setting [1], the Z-score stood at 0.2192.

`CN1C2CC(=O)CC1C(O)C2` (stereo not drawn) [6-Hydroxytropinone] yielded a Z-score under setting [1] of 0.54. Take `CN1CCN(C(c2ccccc2)c2ccc(Cl)cc2)CC1` (stereo not drawn) [(1-[(4-Chlorophenyl)phenyl-methyl]-4-methylpiperazine)]: the “Rank in normalized ORO score from screen” value (glycolytic switch compounds) is given as 720. The compound also registered a Z-score under setting [1] of 0.241. In turn, `CC(C)NC[C@@H](O)c1ccc(O)c(O)c1.O=C(O)C(O)C(O)C(=O)O` [(+)-Isoproterenol (+)-bitartrate salt] gave a Z-score under setting [1] of −0.728. Still for that read-out and setting: the same measure for `CC(C)(C)NC[C@@H](O)COc1cccc2c1CCCC2=O.Cl` [(+)-Levobunolol hydrochloride]: −0.1813; for `CC(C)NC[C@@H](O)COc1ccc(CC(N)=O)cc1` [(R)-(+)-Atenolol]: 0.9856. On the same count and under the same terms, as for `COc1ccc2cc([C@@H](C)C(=O)[O-])ccc2c1.[Na+]` [(R)-Naproxen sodium salt], the figure is 2.243; as for `CC(C)NC[C@@H](O)COc1cccc2ccccc12.Cl` [(R)-Propranolol hydrochloride], −0.4494; as for `N[C@H]1CONC1=O` [(S)-(−)-Cycloserine], −0.4402. The same measure, in the same setting: the same measure for `C[C@@H]1CCC[C@H](C)N1.Cl` [(cis-) Nanophine]: −1.4074; for `COc1ccc2c(c1OC)CN1CCc3cc4c(cc3C1C2)OCO4` (stereo not drawn) [(d,l)-Tetrahydroberberine]: 3.2577. Compound `CC(C)(C)NC[C@H](O)COc1cccc2c1CCCC2=O.Cl` [(−)-Levobunolol hydrochloride] displayed a Z-score under setting [1] of −0.5665.

For the compound `COc1ccc(-c2cc(=O)c3c(O)cc(O)cc3o2)cc1` [Acacetin], under setting [1], the Z-score is recorded as 0.4211.

Compound `CCCC(=O)Nc1ccc(OCC(O)CNC(C)C)c(C(C)=O)c1` (stereo not drawn) [Acebutolol hydrochloride] gave a Z-score under setting [1] of 0.4578. Still for that read-out and setting: the same measure for `O=C(O)COC(=O)Cc1ccccc1Nc1c(Cl)cccc1Cl` [Aceclofenac]: −0.5442. The same measure, in the same setting: the same measure for `COc1ccc2c(c1)c(CC(=O)OCC(=O)O)c(C)n2C(=O)c1ccc(Cl)cc1` [Acemetacin]: −0.9005; for `CC(=O)CC(c1ccc([N+](=O)[O-])cc1)c1c(O)c2ccccc2oc1=O` (stereo not drawn) [Acenocoumarol]: −1.4804; for `CC(=O)Nc1ccc(O)cc1` [Acetaminophen]: −0.6512. The compound `CC(=O)Nc1nnc(S(N)(=O)=O)s1` [Acetazolamide] yielded a Z-score under setting [1] of 0.8773. On the same count and under the same terms, the same measure for `CC(=O)c1ccc(S(=O)(=O)NC(=O)NC2CCCCC2)cc1` [Acetohexamide]: 0.3584. Take `CC(=O)c1ccc2c(c1)N(CCCN(C)C)c1ccccc1S2.O=C(O)/C=C\C(=O)O` [Acetopromazine maleate salt]: the Z-score under setting [1] was −0.5926.

`CC(=O)Oc1ccccc1C(=O)Oc1ccccc1C(=O)O` [Acetylsalicylsalicylic acid] registered a Z-score under setting [1] of −1.3067. With `CCN1C[C@]2(COC)[C@H](O)C[C@H](OC)[C@@]34[C@@H]5C[C@@]6(O)[C@H](OC(=O)c7ccccc7)[C@@H]5[C@@](OC(C)=O)([C@@H]([C@H](OC)[C@H]23)[C@@H]14)[C@@H](O)[C@@H]6OC` [Aconitine], under setting [1], the Z-score was 0.7907. On the same count and under the same terms, as for `Nc1nc2c(ncn2COCCO)c(=O)[nH]1` [Acyclovir], the figure is −0.0091; as for `NC12CC3CC(CC(C3)C1)C2.NC12CC3CC(CC(C3)C1)C2.O=C(O)/C=C/C(=O)O` [Adamantamine fumarate], 0.2085; as for `CCN(CC)CCOC(=O)C(c1ccccc1)c1ccccc1` [Adiphenine hydrochloride], 0.801.

Consider `C[C@]12CCC(=O)C=C1CC[C@@H]1[C@@H]2C(=O)C[C@]2(C)C(=O)CC[C@@H]12` [Adrenosterone], for which the Z-score under setting [1] is reported as −1.025.

Consider `COC(=O)C1=CO[C@@H](C)[C@H]2CN3CCc4c([nH]c5ccccc45)[C@@H]3C[C@H]12.Cl` [Ajmalicine hydrochloride], for which the Z-score under setting [1] is on record as −0.8989. The same measure, in the same setting: as for `CC[C@H]1[C@@H]2C[C@H]3[C@@H]4N(C)c5ccccc5[C@]45C[C@@H]([C@H]2[C@H]5O)N3[C@@H]1O` [Ajmaline], the figure is −0.937.

Regarding `CCCSc1ccc2nc(NC(=O)OC)[nH]c2c1` [Albendazole], under setting [1], the Z-score is 41.6509.

In turn, `CCC(=O)OCC(=O)[C@@]1(OC(=O)CC)[C@H](C)C[C@H]2[C@H]3[C@H]([C@@H](O)C[C@@]21C)[C@@]1(C)C=CC(=O)C=C1C[C@H]3Cl` [Alclometasone dipropionate] registered a Z-score under setting [1] of 0.9375. Still for that read-out and setting: the same measure for `C=CC[N@@+]12CC[C@@]34c5ccccc5N5/C=C6/[C@H]7C[C@H]8[C@@]9(CC[N@@+]8(CC=C)C/C7=C/CO)c7ccccc7N(/C=C(/[C@@H](C[C@@H]31)/C(=C\CO)C2)[C@H]54)[C@@H]69.[Cl-].[Cl-]` [Alcuronium chloride]: 0.354. The same measure, in the same setting: the same measure for `CCCCC(CC)CNC(=N)NC(=N)NCCCCCCNC(=N)NC(=N)NCC(CC)CCCC` (stereo not drawn) [Alexidine dihydrochloride]: 43.2376. Same read-out and setting: as for `CC(=O)OCC(=O)[C@H]1CC[C@H]2[C@@H]3CC[C@H]4C[C@H](O)CC[C@]4(C)[C@H]3C(=O)C[C@]12C` [Alfadolone acetate], the figure is −0.4554. Turning to `COc1cc2nc(N(C)CCCNC(=O)C3CCCO3)nc(N)c2cc1OC` (stereo not drawn) [Alfuzosin hydrochloride], under setting [1], the Z-score turned out to be 0.4534. On the same count and under the same terms, as for `NC(=O)NC1NC(=O)NC1=O` (stereo not drawn) [Allantoin], the figure is 0.8256; as for `C=CCc1ccccc1OCC(O)CNC(C)C` (stereo not drawn) [Alprenolol hydrochloride], 0.9239.

`CCCCC[C@H](O)/C=C/[C@H]1[C@H](O)CC(=O)[C@@H]1CCCCCCC(=O)O` [Alprostadil] had a Z-score under setting [1] of −0.9154. Still for that read-out and setting: as for `C=CCSCC1Nc2cc(Cl)c(S(N)(=O)=O)cc2S(=O)(=O)N1` (stereo not drawn) [Althiazide], the figure is 0.2816.

(Values after patent publication US9393221B2, “Methods and compounds for reducing intracellular lipid storage” (THE GENERAL HOSPITAL CORPORATION, priority 2011, dated 2016).)
